Earlier results in article PMC9851200, “Multiparameter phenotypic screening for endogenous TFEB and TFE3 translocation identifies novel chemical series modulating lysosome function” (Autophagy, 2022).

Columns and labels:
Set-up in all cases: method as in original PKIS2 published data
[1] = target: kinases (KINOMEscan panel) (Homo sapiens, UniProt Q2M2I8); settings: AAK1; Published KINOMEscan; ref original PKIS2 published data; cited from earlier work
[2] = target: kinases (KINOMEscan panel) (Homo sapiens, UniProt Q9H422); settings: kinase HIPK3; Published KINOMEscan; ref original PKIS2 published data; cited from earlier work
Chain of kinases (KINOMEscan panel) (Homo sapiens, UniProt Q9H422) (Q9H422 whole entry): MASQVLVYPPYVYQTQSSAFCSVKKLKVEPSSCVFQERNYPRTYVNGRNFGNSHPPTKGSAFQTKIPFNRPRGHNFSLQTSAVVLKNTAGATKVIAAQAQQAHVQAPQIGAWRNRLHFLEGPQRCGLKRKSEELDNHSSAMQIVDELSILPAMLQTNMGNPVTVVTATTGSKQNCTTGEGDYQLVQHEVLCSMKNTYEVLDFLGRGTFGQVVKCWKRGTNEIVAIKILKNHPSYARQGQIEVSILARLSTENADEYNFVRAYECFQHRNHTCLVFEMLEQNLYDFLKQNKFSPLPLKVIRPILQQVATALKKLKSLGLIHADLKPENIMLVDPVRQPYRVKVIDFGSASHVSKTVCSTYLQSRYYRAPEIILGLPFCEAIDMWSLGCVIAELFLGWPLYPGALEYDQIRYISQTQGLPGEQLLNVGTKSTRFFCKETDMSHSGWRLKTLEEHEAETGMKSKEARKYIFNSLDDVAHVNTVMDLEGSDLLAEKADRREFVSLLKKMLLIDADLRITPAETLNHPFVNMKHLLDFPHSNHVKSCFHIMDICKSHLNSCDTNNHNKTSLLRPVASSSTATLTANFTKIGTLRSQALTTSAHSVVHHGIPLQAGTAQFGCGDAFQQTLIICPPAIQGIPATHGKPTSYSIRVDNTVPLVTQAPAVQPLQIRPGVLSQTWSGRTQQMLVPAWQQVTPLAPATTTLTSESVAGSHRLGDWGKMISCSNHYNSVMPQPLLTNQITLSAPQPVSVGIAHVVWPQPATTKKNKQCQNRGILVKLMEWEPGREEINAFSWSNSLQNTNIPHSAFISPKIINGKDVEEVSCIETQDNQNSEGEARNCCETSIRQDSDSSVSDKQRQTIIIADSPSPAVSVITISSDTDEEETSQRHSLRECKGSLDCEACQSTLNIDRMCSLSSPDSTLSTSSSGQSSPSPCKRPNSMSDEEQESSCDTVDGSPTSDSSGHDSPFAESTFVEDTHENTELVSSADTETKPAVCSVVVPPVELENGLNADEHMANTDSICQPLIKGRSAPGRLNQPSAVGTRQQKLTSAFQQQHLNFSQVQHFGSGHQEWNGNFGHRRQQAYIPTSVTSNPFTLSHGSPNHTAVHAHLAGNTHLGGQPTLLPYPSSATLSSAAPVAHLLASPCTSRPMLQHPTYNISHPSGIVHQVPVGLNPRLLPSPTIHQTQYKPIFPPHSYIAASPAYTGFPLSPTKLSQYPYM

[3] = target: kinases (KINOMEscan panel) (Homo sapiens, UniProt P17948); settings: kinase FLT1; Published KINOMEscan; ref original PKIS2 published data; cited from earlier work
Chain of kinases (KINOMEscan panel) (Homo sapiens, UniProt P17948) (P17948 27-1338): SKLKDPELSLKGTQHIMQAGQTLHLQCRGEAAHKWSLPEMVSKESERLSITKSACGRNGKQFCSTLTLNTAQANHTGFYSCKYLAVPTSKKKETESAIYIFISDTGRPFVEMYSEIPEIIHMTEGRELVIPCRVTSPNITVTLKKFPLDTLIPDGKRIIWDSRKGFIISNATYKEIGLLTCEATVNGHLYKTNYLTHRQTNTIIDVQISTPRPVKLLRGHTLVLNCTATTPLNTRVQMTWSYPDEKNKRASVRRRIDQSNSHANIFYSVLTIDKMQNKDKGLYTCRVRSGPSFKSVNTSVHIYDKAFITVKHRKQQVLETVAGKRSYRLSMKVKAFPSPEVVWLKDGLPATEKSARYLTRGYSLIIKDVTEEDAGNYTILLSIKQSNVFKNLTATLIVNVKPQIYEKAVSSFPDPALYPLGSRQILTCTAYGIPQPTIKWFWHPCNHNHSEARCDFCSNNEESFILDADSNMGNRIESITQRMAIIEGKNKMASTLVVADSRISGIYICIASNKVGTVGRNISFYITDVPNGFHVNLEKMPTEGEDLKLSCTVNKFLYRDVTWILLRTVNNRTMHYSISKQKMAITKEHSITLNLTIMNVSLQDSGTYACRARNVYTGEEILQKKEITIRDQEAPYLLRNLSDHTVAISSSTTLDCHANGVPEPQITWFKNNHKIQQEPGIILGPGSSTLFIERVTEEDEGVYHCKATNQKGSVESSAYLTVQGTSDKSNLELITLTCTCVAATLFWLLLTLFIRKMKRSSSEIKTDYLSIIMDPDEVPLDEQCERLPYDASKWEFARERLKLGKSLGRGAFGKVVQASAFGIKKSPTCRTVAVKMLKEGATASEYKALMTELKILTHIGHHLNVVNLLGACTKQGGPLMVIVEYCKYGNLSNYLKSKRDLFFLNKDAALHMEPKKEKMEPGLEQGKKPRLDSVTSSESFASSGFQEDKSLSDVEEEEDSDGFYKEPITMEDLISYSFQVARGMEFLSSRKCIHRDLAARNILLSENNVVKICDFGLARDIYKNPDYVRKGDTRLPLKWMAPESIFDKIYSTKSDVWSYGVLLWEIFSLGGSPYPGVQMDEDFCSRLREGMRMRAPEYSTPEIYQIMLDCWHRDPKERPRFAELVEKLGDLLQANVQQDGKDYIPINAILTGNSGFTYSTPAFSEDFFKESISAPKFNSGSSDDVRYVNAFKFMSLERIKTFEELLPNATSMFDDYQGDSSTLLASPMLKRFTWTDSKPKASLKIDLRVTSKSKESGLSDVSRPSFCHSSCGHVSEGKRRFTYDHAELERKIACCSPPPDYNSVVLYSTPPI

[4] = target: T1, kinases (KINOMEscan panel) (Homo sapiens, UniProt Q02156); settings: kinase PRKCE; Published KINOMEscan; ref original PKIS2 published data; cited from earlier work
T1 sequence (Q02156 1-737): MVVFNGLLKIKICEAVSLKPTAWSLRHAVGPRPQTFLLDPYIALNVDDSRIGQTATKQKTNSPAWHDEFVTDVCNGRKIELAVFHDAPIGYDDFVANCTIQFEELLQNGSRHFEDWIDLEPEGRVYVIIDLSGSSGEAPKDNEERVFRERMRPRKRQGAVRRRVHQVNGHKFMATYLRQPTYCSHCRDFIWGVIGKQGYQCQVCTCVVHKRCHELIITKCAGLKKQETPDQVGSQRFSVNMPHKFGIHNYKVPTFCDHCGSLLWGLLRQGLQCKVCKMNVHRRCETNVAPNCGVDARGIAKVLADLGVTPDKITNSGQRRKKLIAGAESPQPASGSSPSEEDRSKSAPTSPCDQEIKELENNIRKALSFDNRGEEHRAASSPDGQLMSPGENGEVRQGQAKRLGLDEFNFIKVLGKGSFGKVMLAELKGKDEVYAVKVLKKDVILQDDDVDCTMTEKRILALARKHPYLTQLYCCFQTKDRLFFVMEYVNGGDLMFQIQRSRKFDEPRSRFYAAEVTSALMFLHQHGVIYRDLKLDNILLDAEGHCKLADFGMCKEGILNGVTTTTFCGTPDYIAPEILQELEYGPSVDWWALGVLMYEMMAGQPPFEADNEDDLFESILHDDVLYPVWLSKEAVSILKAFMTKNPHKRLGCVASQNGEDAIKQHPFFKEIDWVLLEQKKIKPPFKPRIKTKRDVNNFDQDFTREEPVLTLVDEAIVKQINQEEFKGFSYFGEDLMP

[5] = target: kinases (KINOMEscan panel) (Homo sapiens, UniProt P12931); settings: SRC; Published KINOMEscan; ref original PKIS2 published data; cited from earlier work
Chain of kinases (KINOMEscan panel) (Homo sapiens, UniProt P12931) (P12931 whole entry): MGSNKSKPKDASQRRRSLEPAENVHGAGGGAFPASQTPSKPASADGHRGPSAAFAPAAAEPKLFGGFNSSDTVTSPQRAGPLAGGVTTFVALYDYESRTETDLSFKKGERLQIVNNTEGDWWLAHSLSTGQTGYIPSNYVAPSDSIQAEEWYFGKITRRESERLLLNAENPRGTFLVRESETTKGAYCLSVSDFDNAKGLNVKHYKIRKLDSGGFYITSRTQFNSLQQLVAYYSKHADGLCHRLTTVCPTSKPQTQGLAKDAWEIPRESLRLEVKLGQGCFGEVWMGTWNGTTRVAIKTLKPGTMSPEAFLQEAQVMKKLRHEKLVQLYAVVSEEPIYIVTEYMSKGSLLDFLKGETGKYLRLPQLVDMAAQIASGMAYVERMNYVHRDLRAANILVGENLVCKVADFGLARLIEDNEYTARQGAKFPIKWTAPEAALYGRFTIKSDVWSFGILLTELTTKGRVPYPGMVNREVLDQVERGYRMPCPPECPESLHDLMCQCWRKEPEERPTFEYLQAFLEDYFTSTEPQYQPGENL

[6] = target: kinases (KINOMEscan panel) (Homo sapiens, UniProt Q86Z02); settings: HIPK1; Published KINOMEscan; ref original PKIS2 published data; cited from earlier work
Chain of kinases (KINOMEscan panel) (Homo sapiens, UniProt Q86Z02) (Q86Z02 whole entry): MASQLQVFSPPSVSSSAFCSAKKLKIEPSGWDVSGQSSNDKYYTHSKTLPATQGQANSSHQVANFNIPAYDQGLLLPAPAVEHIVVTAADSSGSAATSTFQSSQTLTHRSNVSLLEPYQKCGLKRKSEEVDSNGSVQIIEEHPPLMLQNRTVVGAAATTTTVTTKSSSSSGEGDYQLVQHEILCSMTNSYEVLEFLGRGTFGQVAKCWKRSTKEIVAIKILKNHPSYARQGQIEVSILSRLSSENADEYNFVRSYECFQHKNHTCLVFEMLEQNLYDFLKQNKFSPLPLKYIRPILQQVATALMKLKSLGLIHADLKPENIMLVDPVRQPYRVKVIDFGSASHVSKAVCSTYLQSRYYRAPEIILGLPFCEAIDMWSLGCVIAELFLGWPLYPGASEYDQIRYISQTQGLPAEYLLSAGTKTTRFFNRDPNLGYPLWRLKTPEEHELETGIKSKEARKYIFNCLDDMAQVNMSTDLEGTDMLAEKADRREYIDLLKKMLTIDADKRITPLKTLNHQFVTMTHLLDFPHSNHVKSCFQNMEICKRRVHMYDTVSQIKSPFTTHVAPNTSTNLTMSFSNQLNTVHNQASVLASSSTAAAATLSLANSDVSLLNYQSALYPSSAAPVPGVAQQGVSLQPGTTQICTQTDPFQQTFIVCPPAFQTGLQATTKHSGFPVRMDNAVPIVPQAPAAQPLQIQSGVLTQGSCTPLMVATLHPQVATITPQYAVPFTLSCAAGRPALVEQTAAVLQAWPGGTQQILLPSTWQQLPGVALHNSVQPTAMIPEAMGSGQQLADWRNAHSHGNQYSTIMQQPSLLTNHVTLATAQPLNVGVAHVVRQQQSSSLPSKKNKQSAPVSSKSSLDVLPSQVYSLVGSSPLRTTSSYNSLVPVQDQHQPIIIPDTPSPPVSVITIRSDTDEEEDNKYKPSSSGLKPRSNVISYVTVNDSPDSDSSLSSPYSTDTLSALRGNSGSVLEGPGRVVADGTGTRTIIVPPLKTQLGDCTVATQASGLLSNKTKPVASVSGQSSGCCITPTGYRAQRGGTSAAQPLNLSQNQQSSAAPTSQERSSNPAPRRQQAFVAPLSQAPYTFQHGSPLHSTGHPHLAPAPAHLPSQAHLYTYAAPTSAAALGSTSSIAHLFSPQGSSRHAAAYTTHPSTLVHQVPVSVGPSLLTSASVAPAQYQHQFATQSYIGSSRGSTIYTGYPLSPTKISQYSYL

[7] = target: kinases (KINOMEscan panel) (Homo sapiens, UniProt Q9UBF8); settings: kinase PI4KB; Published KINOMEscan; ref original PKIS2 published data; cited from earlier work
Chain of kinases (KINOMEscan panel) (Homo sapiens, UniProt Q9UBF8) (Q9UBF8 whole entry): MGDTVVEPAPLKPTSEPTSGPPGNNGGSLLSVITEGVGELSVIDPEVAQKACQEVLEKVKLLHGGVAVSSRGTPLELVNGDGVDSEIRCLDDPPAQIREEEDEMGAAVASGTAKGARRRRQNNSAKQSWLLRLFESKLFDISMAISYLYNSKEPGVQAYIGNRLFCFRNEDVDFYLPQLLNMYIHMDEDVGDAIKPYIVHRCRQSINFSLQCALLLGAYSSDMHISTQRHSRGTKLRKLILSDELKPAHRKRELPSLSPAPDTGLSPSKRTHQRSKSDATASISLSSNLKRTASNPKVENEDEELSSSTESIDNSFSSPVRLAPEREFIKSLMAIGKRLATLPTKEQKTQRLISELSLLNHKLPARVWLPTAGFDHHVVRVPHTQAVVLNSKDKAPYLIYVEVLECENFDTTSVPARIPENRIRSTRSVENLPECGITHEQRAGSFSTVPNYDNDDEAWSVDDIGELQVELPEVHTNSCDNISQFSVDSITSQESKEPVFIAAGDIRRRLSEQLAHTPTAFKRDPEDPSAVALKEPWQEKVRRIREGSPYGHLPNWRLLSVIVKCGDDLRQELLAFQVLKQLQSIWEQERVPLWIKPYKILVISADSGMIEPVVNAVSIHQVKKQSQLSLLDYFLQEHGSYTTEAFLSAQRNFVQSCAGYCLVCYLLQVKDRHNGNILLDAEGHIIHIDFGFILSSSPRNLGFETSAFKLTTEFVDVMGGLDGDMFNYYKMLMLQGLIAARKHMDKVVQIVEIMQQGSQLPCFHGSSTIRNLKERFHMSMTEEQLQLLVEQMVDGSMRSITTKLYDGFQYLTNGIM

[8] = target: T2, kinases (KINOMEscan panel) (Homo sapiens, UniProt P51956); settings: kinase NEK3; Published KINOMEscan; ref original PKIS2 published data; cited from earlier work
T2 sequence (P51956 1-506): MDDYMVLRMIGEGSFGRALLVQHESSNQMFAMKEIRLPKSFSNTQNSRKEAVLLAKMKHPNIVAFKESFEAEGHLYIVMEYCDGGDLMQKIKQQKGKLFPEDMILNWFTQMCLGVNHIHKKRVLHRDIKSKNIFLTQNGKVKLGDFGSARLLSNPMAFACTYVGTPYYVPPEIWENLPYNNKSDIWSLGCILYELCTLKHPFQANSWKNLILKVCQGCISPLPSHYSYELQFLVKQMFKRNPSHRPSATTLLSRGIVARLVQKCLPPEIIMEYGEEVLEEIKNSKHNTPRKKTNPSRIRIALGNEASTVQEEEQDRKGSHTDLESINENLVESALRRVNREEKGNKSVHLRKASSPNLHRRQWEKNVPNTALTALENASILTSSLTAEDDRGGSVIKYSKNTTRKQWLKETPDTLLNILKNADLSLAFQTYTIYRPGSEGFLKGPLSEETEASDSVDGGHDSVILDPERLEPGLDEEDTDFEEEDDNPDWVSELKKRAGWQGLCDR

[9] = target: kinases (KINOMEscan panel) (Homo sapiens, UniProt Q14004); settings: cited from earlier work

Compound: Cc1cccc(-c2nc(Nc3ccncc3)c3ccccc3n2)n1 [NK215]
- KINOMEscan AAK1 [1]: 2
- KINOMEscan HIPK3 [2]: 0
- KINOMEscan FLT1 [3]: 0
- KINOMEscan PRKCE [4]: 0
- KINOMEscan SRC [5]: 20
- KINOMEscan HIPK1 [6]: 41
- KINOMEscan PI4KB [7]: 0
- KINOMEscan NEK3 [8]: 30
- KINOMEscan CDK13 [9]: 0
